Literature values, collected in patent US20130040971A1, “6-CYCLOALKYL-PYRAZOLOPYRIMIDINONES FOR THE TREATMENT OF CNS DISORDERS” (Boehringer Ingelheim International GmbH, priority 2011, published 2013).

Tests used:
human PDE9A = human PDE9A (Homo sapiens, UniProt O76083); details: concentrations of up to 100 micromolar (μM)
Murine PDE9A = target: T1, Murine PDE9A (Mus musculus, UniProt O70628); details: concentrations below 200 micromolar
T1 sequence (O70628 1-534): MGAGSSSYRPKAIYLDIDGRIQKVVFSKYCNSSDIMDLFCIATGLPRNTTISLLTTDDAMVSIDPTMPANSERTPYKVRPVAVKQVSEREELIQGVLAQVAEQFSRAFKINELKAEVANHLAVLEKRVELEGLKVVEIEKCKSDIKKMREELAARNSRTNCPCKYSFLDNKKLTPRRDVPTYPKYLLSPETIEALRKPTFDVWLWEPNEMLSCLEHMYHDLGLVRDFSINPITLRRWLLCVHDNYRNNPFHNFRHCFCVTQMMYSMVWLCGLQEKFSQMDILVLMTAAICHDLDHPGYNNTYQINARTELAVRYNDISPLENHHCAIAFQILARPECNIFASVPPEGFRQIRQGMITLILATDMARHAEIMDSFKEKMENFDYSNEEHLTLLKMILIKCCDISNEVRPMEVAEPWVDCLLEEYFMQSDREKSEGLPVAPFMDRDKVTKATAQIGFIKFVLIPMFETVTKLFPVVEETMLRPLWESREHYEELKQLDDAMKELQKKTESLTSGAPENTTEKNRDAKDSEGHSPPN

Chain of human PDE9A (O76083 whole entry): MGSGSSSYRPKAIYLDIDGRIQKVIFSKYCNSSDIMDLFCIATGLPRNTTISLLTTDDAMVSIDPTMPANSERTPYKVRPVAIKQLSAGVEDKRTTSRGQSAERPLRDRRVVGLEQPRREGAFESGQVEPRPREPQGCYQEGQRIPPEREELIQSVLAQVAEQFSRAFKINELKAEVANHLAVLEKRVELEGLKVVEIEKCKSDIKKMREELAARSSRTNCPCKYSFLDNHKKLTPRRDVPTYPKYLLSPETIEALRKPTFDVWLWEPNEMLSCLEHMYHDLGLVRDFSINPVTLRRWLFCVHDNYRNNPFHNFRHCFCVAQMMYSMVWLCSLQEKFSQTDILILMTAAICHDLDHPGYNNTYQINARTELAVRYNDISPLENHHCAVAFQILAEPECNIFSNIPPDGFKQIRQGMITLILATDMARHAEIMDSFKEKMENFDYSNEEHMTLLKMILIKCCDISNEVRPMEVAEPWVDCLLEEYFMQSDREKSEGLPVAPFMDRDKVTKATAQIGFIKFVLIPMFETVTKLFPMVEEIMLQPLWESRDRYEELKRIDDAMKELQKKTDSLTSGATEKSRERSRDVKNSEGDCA

| SMILES | inhibition on the isolated enzyme (human PDE9A) (human PDE9A) | inhibition of murine PDE9A (Murine PDE9A) |
| --- | --- | --- |
| CC(=O)Nc1ccc(-c2c[nH]c(=O)cn2)cc1 [SKF94120] | no inhibition |  |
| OCCN(CCO)c1nc(N2CCCCC2)c2nc(N(CCO)CCO)nc(N3CCCCC3)c2n1 [dipyridamole] | no inhibition |  |
| CCOC(=O)C1=C[C@]2(CC)CCCN3CCc4c(n1c1ccccc41)[C@@H]32 [vinpocetine] | no inhibition |  |
| CC(C)Cn1c(=O)n(C)c(=O)c2[nH]cnc21 [IBMX] | no inhibition | not inhibited |
| COc1ccc(C2CNC(=O)C2)cc1OC1CCCC1 (stereo not drawn) [rolipram] | no inhibition |  |
